Where two headings read alike, the source gives them in different places.
Key:
NUDT12 = NUDT12 (Homo sapiens, UniProt Q9BQG2); assay: binding to AX14596 beads (HeLa lysate, SILAC MS); set-up: endogenous in cells; host or cells: HeLa S3
Description: (§1) Differentially SILAC-encoded cell lysates were either incubated with the inhibitor beads displaying immobilized AX14596 or control resin devoid of ligand. In parallel, the supernatant from the first binding step was subjected to a second incubation with the AX14596 resin (FIG. 4). The resulting three elution fractions were combined, resolved by gel electrophoresis, proteolytically digested and the relative abundance of the retained proteins quantified. Proteins showing considerable binding to the control resin were identified as non-specific interactors and therefore not considered further. […] These target-specific ratios were similar in “label switch” experiments (FIGS. 6a and 6c). The binding equilibrium was determined in parallel control SILAC experiments as well as the excess of the immobilized compound over its cellular targets, the excess preferably being a molar excess (FIG. 7 and FIG. 8).
(§2) Cysteine carbamidomethylation was set as a fixed modification and N-acetyl protein and oxidized methionine were allowed as variable modifications. Spectra that were determined to result from heavy labeled peptides in the pre-search detection of SILAC partners by MaxQuant were searched with the fixed modifications Lys^4, Lys^8, Arg^6 and Arg^10, whereas MS/MS spectra for which no SILAC state could be assigned before database searching were searched with Lys^4, Lys^8, Arg^6 and Arg^10 as variable modifications. The mass tolerance was set to 5 ppm for monoisotopic precursor ions and to 0.5 Da for MS/MS peaks. The minimum peptide length was set to 6 amino acids and up to three missed cleavages and three isotopically labeled amino acids were permitted per peptide. The accepted false discovery rate (FDR) was 1% for the proteins and peptides. The cut-off for the posterior error probability (PEP) of peptides was set to 10%. Peptide PEPs were determined by generating Mascot score and peptide-length-dependent histograms for both the forward and the reverse hits and then deriving the probability of a false identification for a given top-scoring peptide using Bayes' theorem. The PEPs of peptides belonging to the same proteins were then multiplied. Each peptide sequence was considered only once with the lowest PEP determined in case of multiple sequencing of the same isotopic pattern or of peptide species with different SILAC, charge or modification states. Proteins were then sorted according to their products of their peptide PEPs and included until a FDR of 1% was reached according to the fraction of reverse proteins contained in the protein list. In addition to the FDR threshold applied for protein identification, proteins were only included when they were identified with at least two peptides (of which one was required to be unique for the protein) and quantified if at least on quantifiable SILAC pair was associated with them. Outliers were not removed as protein ratios were calculated as the median instead of the average of all peptide ratios. For peptides shared among different identified proteins, SILAC ratios were only considered for the ratio of the protein identified with the highest number of unique peptides. Protein ratios for the different in vitro association experiments were corrected for the initial SILAC pooling ratio, which was determined from the median of protein ratios in pooled SILAC-encoded cell extracts.

SPR = SPR (Homo sapiens, UniProt P35270); assay: binding to AX14596 beads (HeLa lysate, SILAC MS); set-up: endogenous in cells; host or cells: HeLa S3
Sequence of SPR (P35270 whole entry): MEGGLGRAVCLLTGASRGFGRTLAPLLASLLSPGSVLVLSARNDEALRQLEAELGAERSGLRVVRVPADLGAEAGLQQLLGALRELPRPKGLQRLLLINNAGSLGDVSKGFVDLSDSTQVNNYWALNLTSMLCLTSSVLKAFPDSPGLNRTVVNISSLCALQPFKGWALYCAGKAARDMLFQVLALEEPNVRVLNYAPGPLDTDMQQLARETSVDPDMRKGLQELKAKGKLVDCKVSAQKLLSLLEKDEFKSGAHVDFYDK
Description: as §1, §2

Sepiapterin reductase = Sepiapterin reductase (Homo sapiens, UniProt P35270); assay: binding to immobilized V16742 (IVA1/IVA2, HeLa lysate, MS)
Sequence of Sepiapterin reductase (P35270 whole entry): as above

EphB4 = EphB4 (Homo sapiens, UniProt P54760); assay: as above
Sequence of EphB4 (P54760 16-987): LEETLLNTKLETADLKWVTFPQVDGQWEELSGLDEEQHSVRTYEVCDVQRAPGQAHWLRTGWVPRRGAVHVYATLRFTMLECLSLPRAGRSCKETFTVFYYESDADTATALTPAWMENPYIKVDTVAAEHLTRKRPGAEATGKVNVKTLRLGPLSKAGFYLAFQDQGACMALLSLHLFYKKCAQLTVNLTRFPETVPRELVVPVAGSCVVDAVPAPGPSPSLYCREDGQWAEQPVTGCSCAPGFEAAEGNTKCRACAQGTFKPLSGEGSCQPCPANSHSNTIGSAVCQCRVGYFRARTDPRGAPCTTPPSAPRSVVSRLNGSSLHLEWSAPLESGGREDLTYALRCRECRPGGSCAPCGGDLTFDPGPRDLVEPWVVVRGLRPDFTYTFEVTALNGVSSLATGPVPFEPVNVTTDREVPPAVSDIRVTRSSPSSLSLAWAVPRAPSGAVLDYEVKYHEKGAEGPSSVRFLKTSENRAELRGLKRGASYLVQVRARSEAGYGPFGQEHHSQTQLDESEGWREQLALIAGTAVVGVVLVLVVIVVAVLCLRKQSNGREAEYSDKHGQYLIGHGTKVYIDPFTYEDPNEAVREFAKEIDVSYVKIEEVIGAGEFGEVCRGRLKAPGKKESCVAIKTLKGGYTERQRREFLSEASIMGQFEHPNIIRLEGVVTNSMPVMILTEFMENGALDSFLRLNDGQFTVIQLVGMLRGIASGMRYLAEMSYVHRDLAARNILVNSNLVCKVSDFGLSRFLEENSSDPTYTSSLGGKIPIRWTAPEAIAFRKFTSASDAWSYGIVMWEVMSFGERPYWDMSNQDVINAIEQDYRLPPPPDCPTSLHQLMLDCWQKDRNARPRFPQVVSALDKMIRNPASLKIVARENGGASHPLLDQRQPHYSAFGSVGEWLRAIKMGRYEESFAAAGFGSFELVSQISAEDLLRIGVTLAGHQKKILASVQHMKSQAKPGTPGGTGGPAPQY

EphB2 = target: T1, EphB2 (Homo sapiens, UniProt P29323)
T1 sequence (P29323 19-1055): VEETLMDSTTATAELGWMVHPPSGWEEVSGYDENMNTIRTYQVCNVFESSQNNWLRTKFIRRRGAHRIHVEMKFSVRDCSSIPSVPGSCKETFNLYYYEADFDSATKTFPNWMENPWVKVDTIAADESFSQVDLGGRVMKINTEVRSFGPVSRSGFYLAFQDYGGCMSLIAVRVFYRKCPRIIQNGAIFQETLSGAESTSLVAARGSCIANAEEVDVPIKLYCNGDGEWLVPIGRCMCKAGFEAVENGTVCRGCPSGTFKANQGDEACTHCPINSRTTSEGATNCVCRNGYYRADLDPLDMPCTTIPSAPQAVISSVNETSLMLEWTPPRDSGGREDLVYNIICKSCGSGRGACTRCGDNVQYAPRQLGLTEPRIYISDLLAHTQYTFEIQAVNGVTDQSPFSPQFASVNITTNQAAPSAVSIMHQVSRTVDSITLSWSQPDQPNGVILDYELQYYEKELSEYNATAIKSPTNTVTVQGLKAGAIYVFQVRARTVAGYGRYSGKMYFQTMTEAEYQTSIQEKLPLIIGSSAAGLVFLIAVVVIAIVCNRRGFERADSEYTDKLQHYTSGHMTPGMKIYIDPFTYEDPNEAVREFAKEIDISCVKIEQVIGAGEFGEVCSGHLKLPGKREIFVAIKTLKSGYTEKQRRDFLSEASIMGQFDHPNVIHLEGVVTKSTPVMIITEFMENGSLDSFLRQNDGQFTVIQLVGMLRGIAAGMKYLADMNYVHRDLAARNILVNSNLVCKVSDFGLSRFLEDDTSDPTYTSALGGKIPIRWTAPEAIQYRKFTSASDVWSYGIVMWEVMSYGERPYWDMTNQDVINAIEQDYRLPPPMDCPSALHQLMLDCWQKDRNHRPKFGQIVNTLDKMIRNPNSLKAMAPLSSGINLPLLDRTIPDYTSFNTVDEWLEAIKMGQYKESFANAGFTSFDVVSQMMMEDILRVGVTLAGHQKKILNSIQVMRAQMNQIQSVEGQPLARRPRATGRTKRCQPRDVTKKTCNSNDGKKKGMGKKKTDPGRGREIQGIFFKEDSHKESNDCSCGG

Sequence of NUDT12 (Q9BQG2 whole entry): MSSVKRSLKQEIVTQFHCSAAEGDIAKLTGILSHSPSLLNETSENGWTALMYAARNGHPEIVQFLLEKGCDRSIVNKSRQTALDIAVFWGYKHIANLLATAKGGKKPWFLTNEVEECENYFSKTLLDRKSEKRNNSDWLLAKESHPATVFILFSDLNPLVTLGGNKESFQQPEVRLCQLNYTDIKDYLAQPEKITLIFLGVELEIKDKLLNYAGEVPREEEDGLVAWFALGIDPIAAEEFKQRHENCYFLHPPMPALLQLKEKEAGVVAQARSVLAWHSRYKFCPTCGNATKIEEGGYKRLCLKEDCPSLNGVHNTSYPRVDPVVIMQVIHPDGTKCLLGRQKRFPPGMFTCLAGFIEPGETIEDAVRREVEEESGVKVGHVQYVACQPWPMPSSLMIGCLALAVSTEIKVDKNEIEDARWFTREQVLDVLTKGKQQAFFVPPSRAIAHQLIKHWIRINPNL

With `COc1cc2ncnc(Nc3ccc(F)c(Cl)c3)c2cc1OCCCN` [AX14596] the Ki (NUDT12) was 16.1 µM, the “r (3 mg/1 mg lysate)” value (NUDT12) was 2.24 and the “r (5 h/2.5 h inc. time)” value (NUDT12) was 0.91. The “rAVERAGE (2. inc/1. inc)” value (NUDT12) was 0.14, the “rAVERAGE (control/1. inc)” value (NUDT12) was 0.04 and the Ki (SPR) was 1860 µM. The “r (3 mg/1 mg lysate)” value (SPR) was 2.91, the “r (5 h/2.5 h inc. time)” value (SPR) was 2.43 and the “rAVERAGE (2. inc/1. inc)” value (SPR) was 0.95. For the same molecule, the “rAVERAGE (control/1. inc)” value (SPR) was 0.02.
`CC(C)n1c(=O)ccc2cnc(Nc3ccc(OCCN)cc3)nc21` [V16742] was tested, and the Kd (Sepiapterin reductase) was 58.6 µM, the Kd (Sepiapterin reductase; Kd Avg, Sepiapterin reductase, average of two experiments) was 93 µM and the Kd (Sepiapterin reductase; Kd, Sepiapterin reductase, Experiment 2) was 127 µM. For the same molecule, the Kd (Sepiapterin reductase; Kd, Sepiapterin reductase, immobilized V16742) was 93 µM, the “Percent bound at various 16742 conc” value (Sepiapterin reductase; Sepiapterin reductase, Experiment 1, 1.87 μM 16742) was 2.16% and the “Percent bound at various 16742 conc” value (Sepiapterin reductase; Sepiapterin reductase, Experiment 1, 8.74 μM 16742) was 2.59%. The “Percent bound at various 16742 conc” value (Sepiapterin reductase; Sepiapterin reductase, Experiment 1, 52 μM 16742) was 51.84%, the “Percent bound at various 16742 conc” value (Sepiapterin reductase; Sepiapterin reductase, Experiment 2, 1.87 μM 16742) was 1.04% and the “Percent bound at various 16742 conc” value (Sepiapterin reductase; Sepiapterin reductase, Experiment 2, 8.74 μM 16742) was 1.52%. The “Percent bound at various 16742 conc” value (Sepiapterin reductase; Sepiapterin reductase, Experiment 2, 52 μM 16742) was 30.43%.
With `CC(C)n1c(=O)ccc2cnc(Nc3ccc(OCCN)cc3)nc21` [compound 16742] the “Percent bound at 1.87 μM 16742 conc” value (EphB4; EXPERIMENT 1) was 3.95%, the “Percent bound at 8.74 μM 16742 conc” value (EphB4; EXPERIMENT 1) was 18.14% and the “Percent bound at 52 μM 16742 conc” value (EphB4; EXPERIMENT 1) was 61.05%. For the same molecule, the Kd (EphB4; EXPERIMENT 1, read-out: Kd) was 35.2 µM, the “Percent bound at 1.87 μM 16742 conc” value (EphB4; EXPERIMENT 2) was 2.71% and the “Percent bound at 8.74 μM 16742 conc” value (EphB4; EXPERIMENT 2) was 12.85%. The “Percent bound at 52 μM 16742 conc” value (EphB4; EXPERIMENT 2) was 50.80%, the Kd (EphB4; EXPERIMENT 2, read-out: Kd) was 52.1 µM and the Kd (EphB4; read-out: Kd Avg) was 43.6 µM.
For `COc1cc2ncnc(Nc3ccc(F)c(Cl)c3)c2cc1OCCCN1CCOCC1` [gefitinib], the “rAVERAGE (10 nM/0 nM Gef.)” value (EphB2) was 0.88, the “rAVERAGE (100 nM/0 nM Gef.)” value (EphB2) was 0.90 and the “rAVERAGE (1000 nM/0 nM Gef.)” value (EphB2) was 0.85. The “rAVERAGE (10000 nM/0 nM Gef.)” value (EphB2) was 0.33.
